In the supplement of paper PMC10307832:

Tests used:
Experiment in all cases: relative viability (nuclei count vs DMSO), 5 days (fraction); higher = more cells survive
[1] = tested on: A549
Method in brief: (§1)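 Relative viability equals treated-well nuclei counts divided by vehicle-well nuclei counts. Counts came from 4× images of lung cancer cell lines grown in 1536-well plates for 5 days after pin-tool dosing on the day after seeding. Dosing used one drug alone or a fixed anchor-drug dose plus five library-drug doses (not always all listed) in √10 steps, and values are medians of duplicate plates.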

[2] = tested on: Calu-6
Method in brief: as §1

[3] = tested on: EBC-1
Method in brief: as §1

[4] = tested on: IA-LM
Method in brief: as §1

[5] = tested on: NCI-H1299
Method in brief: as §1

[6] = tested on: NCI-H1703
Method in brief: as §1

[7] = tested on: NCI-H2009
Method in brief: as §1

[8] = tested on: NCI-H460
Method in brief: as §1

[9] = tested on: NCI-H661
Method in brief: as §1

O=C(O)c1ccc(-c2c[nH]c3ncc(-c4ccccc4)cc23)cc1C1CCCC1 + C[C@@H](Oc1cc(-c2cnn(C3CCNCC3)c2)cnc1N)c1c(Cl)ccc(F)c1Cl [Crizotinib] (partner 1 µM)
relative viability ([1]; first compound 0.04 µM): 0.795
relative viability ([1]; first compound 0.1265 µM): 0.776
relative viability ([1]; first compound 0.4 µM): 0.668
relative viability ([1]; first compound 1.265 µM): 0.44
relative viability ([2]; first compound 0.04 µM): 0.828
relative viability ([2]; first compound 0.1265 µM): 0.777
relative viability ([2]; first compound 0.4 µM): 0.72
relative viability ([2]; first compound 1.265 µM): 0.636
relative viability ([3]; first compound 0.04 µM): 0.185
relative viability ([3]; first compound 0.1265 µM): 0.217
relative viability ([3]; first compound 0.4 µM): 0.185
relative viability ([3]; first compound 1.265 µM): 0.191
relative viability ([4]; first compound 0.04 µM): 0.698
relative viability ([4]; first compound 0.1265 µM): 0.772
relative viability ([4]; first compound 0.4 µM): 0.893
relative viability ([4]; first compound 1.265 µM): 0.835
relative viability ([5]; first compound 0.04 µM): 0.966
relative viability ([5]; first compound 0.1265 µM): 0.952
relative viability ([5]; first compound 0.4 µM): 0.916
relative viability ([5]; first compound 1.265 µM): 0.868
relative viability ([6]; first compound 0.04 µM): 0.482
relative viability ([6]; first compound 0.1265 µM): 0.85
relative viability ([6]; first compound 0.4 µM): 0.669
relative viability ([6]; first compound 1.265 µM): 0.647
relative viability ([7]; first compound 0.04 µM): 0.994
relative viability ([7]; first compound 0.1265 µM): 1.05
relative viability ([7]; first compound 0.4 µM): 0.931
relative viability ([7]; first compound 1.265 µM): 0.666
relative viability ([8]; first compound 0.04 µM): 0.872
relative viability ([8]; first compound 0.1265 µM): 1.06
relative viability ([8]; first compound 0.4 µM): 0.83
relative viability ([8]; first compound 1.265 µM): 0.864
relative viability ([9]; first compound 0.1265 µM): 0.963
relative viability ([9]; first compound 0.4 µM): 0.967
relative viability ([9]; first compound 1.265 µM): 1.03

CC1(C)CCC(c2ccc(Cl)cc2)=C(CN2CCN(c3ccc(C(=O)NS(=O)(=O)c4ccc(N[C@H](CCN5CCOCC5)CSc5ccccc5)c(S(=O)(=O)C(F)(F)F)c4)cc3)CC2)C1 [Navitoclax] + Cc1nc(NC(=O)N2CCC[C@H]2C(N)=O)sc1-c1ccnc(C(C)(C)C(F)(F)F)c1 [Alpelisib] (partner 2 µM)
relative viability ([1]; first compound 0.005 µM): 0.774
relative viability ([1]; first compound 0.01581 µM): 0.932
relative viability ([1]; first compound 0.05 µM): 0.922
relative viability ([1]; first compound 0.1581 µM): 0.803
relative viability ([1]; first compound 0.5 µM): 0.778
relative viability ([2]; first compound 0.005 µM): 0.973
relative viability ([2]; first compound 0.01581 µM): 1.08
relative viability ([2]; first compound 0.05 µM): 0.943
relative viability ([2]; first compound 0.1581 µM): 0.875
relative viability ([2]; first compound 0.5 µM): 0.938
relative viability ([3]; first compound 0.005 µM): 0.781
relative viability ([3]; first compound 0.01581 µM): 1.13
relative viability ([3]; first compound 0.05 µM): 0.928
relative viability ([3]; first compound 0.1581 µM): 0.829
relative viability ([3]; first compound 0.5 µM): 0.592
relative viability ([4]; first compound 0.005 µM): 0.69
relative viability ([4]; first compound 0.01581 µM): 0.986
relative viability ([4]; first compound 0.05 µM): 0.737
relative viability ([4]; first compound 0.1581 µM): 0.792
relative viability ([4]; first compound 0.5 µM): 0.833
relative viability ([5]; first compound 0.005 µM): 1.01
relative viability ([5]; first compound 0.01581 µM): 1.09
relative viability ([5]; first compound 0.05 µM): 1.11
relative viability ([5]; first compound 0.1581 µM): 1.06
relative viability ([5]; first compound 0.5 µM): 1.03
relative viability ([6]; first compound 0.005 µM): 0.308
relative viability ([6]; first compound 0.01581 µM): 0.406
relative viability ([6]; first compound 0.05 µM): 0.425
relative viability ([6]; first compound 0.1581 µM): 0.457
relative viability ([6]; first compound 0.5 µM): 0.336
relative viability ([7]; first compound 0.005 µM): 1.08
relative viability ([7]; first compound 0.01581 µM): 1.16
relative viability ([7]; first compound 0.05 µM): 1.15
relative viability ([7]; first compound 0.1581 µM): 1.2
relative viability ([7]; first compound 0.5 µM): 1.21
relative viability ([8]; first compound 0.005 µM): 0.5
relative viability ([8]; first compound 0.01581 µM): 0.533
relative viability ([8]; first compound 0.05 µM): 0.639
relative viability ([8]; first compound 0.1581 µM): 0.511
relative viability ([8]; first compound 0.5 µM): 0.46
relative viability ([9]; first compound 0.005 µM): 0.438
relative viability ([9]; first compound 0.01581 µM): 0.468
relative viability ([9]; first compound 0.05 µM): 0.479
relative viability ([9]; first compound 0.1581 µM): 0.465
relative viability ([9]; first compound 0.5 µM): 0.673

NC(=O)Nc1cc(-c2cccc(F)c2)sc1C(=O)N[C@H]1CCCNC1 [AZD7762] + CS(=O)(=O)CCNCc1ccc(-c2ccc3ncnc(Nc4ccc(OCc5cccc(F)c5)c(Cl)c4)c3c2)o1 [Lapatinib] (partner 2 µM)
relative viability ([1]; first compound 0.01 µM): 1.12
relative viability ([1]; first compound 0.03162 µM): 1.02
relative viability ([1]; first compound 0.1 µM): 1.05
relative viability ([1]; first compound 0.3162 µM): 0.823
relative viability ([1]; first compound 1 µM): 0.198
relative viability ([2]; first compound 0.01 µM): 1.11
relative viability ([2]; first compound 0.03162 µM): 1.02
relative viability ([2]; first compound 0.1 µM): 0.96
relative viability ([2]; first compound 0.3162 µM): 0.2
relative viability ([2]; first compound 1 µM): 0.147
relative viability ([3]; first compound 0.01 µM): 0.215
relative viability ([3]; first compound 0.03162 µM): 0.191
relative viability ([3]; first compound 0.1 µM): 0.234
relative viability ([3]; first compound 0.3162 µM): 0.199
relative viability ([3]; first compound 1 µM): 0.186
relative viability ([4]; first compound 0.01 µM): 1.13
relative viability ([4]; first compound 0.03162 µM): 1.11
relative viability ([4]; first compound 0.1 µM): 1.1
relative viability ([4]; first compound 0.3162 µM): 0.798
relative viability ([4]; first compound 1 µM): 0.16
relative viability ([5]; first compound 0.01 µM): 0.955
relative viability ([5]; first compound 0.03162 µM): 0.963
relative viability ([5]; first compound 0.1 µM): 0.968
relative viability ([5]; first compound 0.3162 µM): 0.811
relative viability ([5]; first compound 1 µM): 0.289
relative viability ([6]; first compound 0.01 µM): 0.627
relative viability ([6]; first compound 0.03162 µM): 0.31
relative viability ([6]; first compound 0.1 µM): 0.238
relative viability ([6]; first compound 0.3162 µM): 0.176
relative viability ([6]; first compound 1 µM): 0.156
relative viability ([7]; first compound 0.01 µM): 1.25
relative viability ([7]; first compound 0.03162 µM): 1.04
relative viability ([7]; first compound 0.1 µM): 1
relative viability ([7]; first compound 0.3162 µM): 0.896
relative viability ([7]; first compound 1 µM): 0.518
relative viability ([8]; first compound 0.01 µM): 1.07
relative viability ([8]; first compound 0.03162 µM): 0.972
relative viability ([8]; first compound 0.1 µM): 0.824
relative viability ([8]; first compound 0.3162 µM): 0.467
relative viability ([8]; first compound 1 µM): 0.0597
relative viability ([9]; first compound 0.01 µM): 0.6
relative viability ([9]; first compound 0.03162 µM): 0.546
relative viability ([9]; first compound 0.1 µM): 0.512
relative viability ([9]; first compound 0.3162 µM): 0.405
relative viability ([9]; first compound 1 µM): 0.28
